Experimental data from patent US20120245155A1, “FUSED HETEROCYCLIC COMPOUND HAVING AMINO GROUP” (Shionogi & Co., Ltd., priority 2009, published 2012).

Legend:
[1] = tested on: Neuroblastoma SH—SY5Y cells (SH/APPwt) with human wild-type β-APP excessively expressed; assay: Measurement of β-amyloid (Aβ) production inhibitory effect in cell; type: cell-based; conditions: 24 hours incubation, Amyloid β 1-40 by HTRF, read-out: amount needed to inhibit Aβ production by 50% (IC50)
Procedure: Neuroblastoma SH—SY5Y cells (SH/APPwt) with human wild-type p-APP excessively expressed therein were prepared at 8×10^5 cells/mL, and 150 μl portions thereof were inoculated into each well of a 96-well culture plate (Falcon). The cells were cultured for 2 hours at 37° C. in a 5% gaseous carbon dioxide incubator. Then, a solution which had been preliminarily prepared by adding and suspending the test compound (DMSO (dimethyl sulfoxide) solution) so as to be 2 μl/50 μl medium was added to the cell sap. Namely, the final DMSO concentration was 1%, and the amount of the cell culture was 200 μl. After the incubation was performed for 24 hours from the addition of the test compound, 100 μl of the culture supernatant was collected from each fraction. The amount of the Aβ in each fraction was measured.
The Aβ amount was measured as follows. 10 μl of a homogeneous time resolved fluorescence (HTRF) measurement reagent (Amyloid β 1-40 peptide; IBA Molecular Holding, S. A.) and 10 μl of the culture supernatant were put into a 384-well half area microplate (black microplate, Costar) and mixed with each other, and then left standing overnight at 4° C. while the light was shielded. Then, the fluorescence intensity (excitation wavelength: 337 nm, measurement wavelength: 620 nm and 665 nm) was measured with a Wallac 1420 multilabel counter (Perkin Elmer life sciences). The Aβ amount was determined from the count rate at each measurement wavelength (10000× Count 665/Count 620), and the amount needed to inhibit Aβ production by 50% (IC50) was calculated from at least six different dosages.

Recombinant human BACE1 = target: T1, Recombinant human BACE1 (Homo sapiens, UniProt P56817); assay: Assay of BACE 1 inhibiting activity; type: biochemical; conditions: Recombinant human BACE1 7.4 nmol/L, substrate peptide 18 nmol/L, pH 5.0, 30° C., 3 hours; read-out: 50% inhibitory concentration against the enzymatic activity (IC50)
T1 construct: purchased R&D Systems
T1 sequence (P56817 46-501): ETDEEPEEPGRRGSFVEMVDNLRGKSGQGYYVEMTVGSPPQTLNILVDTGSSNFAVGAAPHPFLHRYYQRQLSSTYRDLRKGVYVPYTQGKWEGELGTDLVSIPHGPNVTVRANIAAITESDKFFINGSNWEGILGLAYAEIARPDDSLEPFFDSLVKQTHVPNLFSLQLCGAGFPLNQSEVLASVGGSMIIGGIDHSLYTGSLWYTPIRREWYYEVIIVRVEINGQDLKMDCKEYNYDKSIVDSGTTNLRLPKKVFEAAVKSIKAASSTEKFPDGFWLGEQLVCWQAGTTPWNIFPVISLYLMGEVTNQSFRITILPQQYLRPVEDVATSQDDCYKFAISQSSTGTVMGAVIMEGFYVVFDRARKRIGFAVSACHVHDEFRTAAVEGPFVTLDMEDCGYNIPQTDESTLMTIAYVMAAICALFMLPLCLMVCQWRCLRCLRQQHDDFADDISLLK
Procedure: 48.5 μL of substrate peptide solution (Biotin-XSEVNLDAEFRHDSGC-Eu: X═ε-amino-n-capronic acid, Eu=Europium cryptate) was added to each well of 96-hole half-area plate (a black plate: Costar), and after addition of 0.5 μl of the test compound (dissolved in […]) and 1 μl of Recombinant human BACE1 (R&D Systems), the reaction mixture was incubated at 30° C. for 3 hours. The substrate peptide was synthesized by reacting Cryptate TBPCOOH mono SMP (CIS bio international) with Biotin-XSEVNLDAEFRHDSGC (Peptide Institute, Inc.). The final concentrations of the substrate peptide and Recombinant human BACE1 were adjusted to 18 nmol/L and 7.4 nmol/L, respectively, and the reaction was performed in sodium acetate buffer (50 mmol/L sodium acetate, pH 5.0, 0.008% Triton X-100).
After the incubation for reaction, 50 μl of 8.0 μg/ml Streptavidin-XL665 (CIS bio international) dissolved in phosphate buffer (150 mmol/L K2 HPO4—KH2PO4, pH 7.0, 0.008% Triton X-100, 0.8 mol/L KF) was added to each well and left stand at 30° C. for an hour. After then, fluorescence intensity was measured (excitation wavelength: 320 nm, measuring wavelength: 620 nm and 665 nm) using Wallac 1420 multilabel counter (Perkin Elmer life sciences). Enzymatic activity was determined from counting ratio of each wavelength (10,000× Count 665/Count 620) and 50% inhibitory concentration against the enzymatic activity was calculated.

CYP2C19 = target: T2, CYP2C19 (Homo sapiens, UniProt P33261); assay: CYP inhibition test (mephenytoin 4'-hydroxylation); type: in vitro ADME; conditions: pooled human hepatic microsome, test drug concentration 1, 5, 10, 20 μmol/L
T2 construct: enzyme, pooled human hepatic microsome 0.2 mg protein/mL; from tissue; host or cells: pooled human hepatic microsome
T2 sequence (P33261 whole entry): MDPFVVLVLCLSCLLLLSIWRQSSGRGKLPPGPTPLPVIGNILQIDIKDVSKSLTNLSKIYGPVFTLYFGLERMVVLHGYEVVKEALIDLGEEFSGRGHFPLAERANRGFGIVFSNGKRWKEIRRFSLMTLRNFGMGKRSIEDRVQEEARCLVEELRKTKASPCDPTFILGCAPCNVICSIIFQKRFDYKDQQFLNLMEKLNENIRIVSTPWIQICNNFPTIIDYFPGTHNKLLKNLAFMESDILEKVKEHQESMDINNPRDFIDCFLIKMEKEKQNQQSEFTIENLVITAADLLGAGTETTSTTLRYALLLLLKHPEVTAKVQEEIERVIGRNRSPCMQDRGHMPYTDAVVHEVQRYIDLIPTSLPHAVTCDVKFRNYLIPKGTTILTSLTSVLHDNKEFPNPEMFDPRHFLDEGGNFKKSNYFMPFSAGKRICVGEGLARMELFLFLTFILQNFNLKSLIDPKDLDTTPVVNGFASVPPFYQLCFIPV
Procedure: (§1) Using commercially available pooled human hepatic microsome, and employing, as markers, 7-ethoxyresorufin O-deethylation (CYP1A2), tolbutamide methyl-hydroxylation (CYP2C9), mephenyloin 4′-hydroxylation (CYP2C19), dextromethorphan O-demethylation (CYP2D6), and terfenadine hydroxylation (CYP3A4) as typical substrate metabolism reactions of human main five CYP enzyme forms (CYP1A2, 2C9, 2C19, 2D6, 3A4), an inhibitory degree of each metabolite production amount by a test compound was assessed. […] After the centrifugation at 3000 rpm for 15 minutes, resorufin (CYP1A2 metabolite) in the supernatant was quantified by a fluorescent multilabel counter and tolbutamide hydroxide (CYP2C9 metabolite), mephenyloin 4′ hydroxide (CYP2C19 metabolite), dextrorphan (CYP2D6 metabolite), and terfenadine alcohol (CYP3A4 metabolite) were quantified by LC/MS/MS. Addition of only DMSO being a solvent dissolving a drug to a reaction system was adopted as a control (100%), remaining activity (%) was calculated at each concentration of a test drug added as the solution and IC50 was calculated by reverse presumption by a logistic model using a concentration and an inhibition rate.

CYP1A2 = target: T3, CYP1A2 (Homo sapiens, UniProt P05177); assay: CYP inhibition test (7-ethoxyresorufin O-deethylation); type: in vitro ADME; conditions: pooled human hepatic microsome, test drug concentration 1, 5, 10, 20 μmol/L
T3 construct: enzyme, pooled human hepatic microsome 0.2 mg protein/mL; from tissue; host or cells: pooled human hepatic microsome
T3 sequence (P05177 1-516): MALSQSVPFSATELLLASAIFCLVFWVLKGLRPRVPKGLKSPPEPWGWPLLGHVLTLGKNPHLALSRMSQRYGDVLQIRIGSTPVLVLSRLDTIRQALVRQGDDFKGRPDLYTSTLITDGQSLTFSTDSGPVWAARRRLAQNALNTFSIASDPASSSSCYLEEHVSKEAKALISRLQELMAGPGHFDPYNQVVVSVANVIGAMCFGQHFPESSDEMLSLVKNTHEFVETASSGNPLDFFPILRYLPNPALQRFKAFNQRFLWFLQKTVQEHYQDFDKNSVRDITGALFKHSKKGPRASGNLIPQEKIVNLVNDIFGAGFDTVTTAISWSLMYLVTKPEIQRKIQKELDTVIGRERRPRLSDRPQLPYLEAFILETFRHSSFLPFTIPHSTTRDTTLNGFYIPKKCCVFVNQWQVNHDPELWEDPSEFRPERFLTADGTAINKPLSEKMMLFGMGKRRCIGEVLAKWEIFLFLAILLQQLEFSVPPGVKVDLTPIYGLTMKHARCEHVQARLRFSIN
Procedure: as §1

CYP3A4 [2] = target: T4, CYP3A4 (Homo sapiens, UniProt P08684); assay: CYP inhibition test (terfenadine hydroxylation); type: in vitro ADME; set-up: enzyme, pooled human hepatic microsome 0.2 mg protein/mL; from tissue; host or cells: pooled human hepatic microsome; conditions: pooled human hepatic microsome, test drug concentration 1, 5, 10, 20 μmol/L
T4 sequence (P08684 whole entry): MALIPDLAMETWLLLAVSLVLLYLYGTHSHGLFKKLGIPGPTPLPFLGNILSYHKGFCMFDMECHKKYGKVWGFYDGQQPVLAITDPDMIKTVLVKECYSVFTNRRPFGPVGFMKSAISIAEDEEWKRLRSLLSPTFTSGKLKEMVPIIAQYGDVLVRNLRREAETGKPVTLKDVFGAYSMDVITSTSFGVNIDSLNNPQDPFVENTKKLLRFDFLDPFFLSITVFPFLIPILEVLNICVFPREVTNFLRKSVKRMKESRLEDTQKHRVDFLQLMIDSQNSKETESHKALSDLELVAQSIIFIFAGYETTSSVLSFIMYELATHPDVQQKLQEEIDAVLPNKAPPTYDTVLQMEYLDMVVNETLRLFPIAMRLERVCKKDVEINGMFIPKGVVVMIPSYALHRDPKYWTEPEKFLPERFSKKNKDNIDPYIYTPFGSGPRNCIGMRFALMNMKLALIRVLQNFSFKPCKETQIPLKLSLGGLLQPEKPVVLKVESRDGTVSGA
Procedure: as §1

CYP2C9 = target: T5, CYP2C9 (Homo sapiens, UniProt P11712); assay: CYP inhibition test (tolbutamide methyl-hydroxylation); type: in vitro ADME; conditions: pooled human hepatic microsome, test drug concentration 1, 5, 10, 20 μmol/L
T5 construct: enzyme, pooled human hepatic microsome 0.2 mg protein/mL; from tissue; host or cells: pooled human hepatic microsome
T5 sequence (P11712 whole entry): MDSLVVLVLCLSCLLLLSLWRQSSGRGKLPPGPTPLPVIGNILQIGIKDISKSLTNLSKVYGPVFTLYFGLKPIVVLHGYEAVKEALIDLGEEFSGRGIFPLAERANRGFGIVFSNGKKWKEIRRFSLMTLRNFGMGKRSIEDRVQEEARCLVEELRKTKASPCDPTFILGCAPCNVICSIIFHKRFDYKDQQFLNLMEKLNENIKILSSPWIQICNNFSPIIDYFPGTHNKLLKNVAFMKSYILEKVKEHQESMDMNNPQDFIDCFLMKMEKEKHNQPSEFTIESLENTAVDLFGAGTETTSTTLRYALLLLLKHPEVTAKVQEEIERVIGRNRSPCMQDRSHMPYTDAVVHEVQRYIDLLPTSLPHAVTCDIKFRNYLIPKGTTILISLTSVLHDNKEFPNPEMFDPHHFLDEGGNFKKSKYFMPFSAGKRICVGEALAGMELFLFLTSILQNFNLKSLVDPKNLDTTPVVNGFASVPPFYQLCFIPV
Procedure: as §1

CYP2D6 = target: T6, CYP2D6 (Homo sapiens, UniProt P10635); assay: CYP inhibition test (dextromethorphan O-demethylation); type: in vitro ADME; conditions: pooled human hepatic microsome, test drug concentration 1, 5, 10, 20 μmol/L
T6 construct: enzyme, pooled human hepatic microsome 0.2 mg protein/mL; from tissue; host or cells: pooled human hepatic microsome
T6 sequence (P10635 whole entry): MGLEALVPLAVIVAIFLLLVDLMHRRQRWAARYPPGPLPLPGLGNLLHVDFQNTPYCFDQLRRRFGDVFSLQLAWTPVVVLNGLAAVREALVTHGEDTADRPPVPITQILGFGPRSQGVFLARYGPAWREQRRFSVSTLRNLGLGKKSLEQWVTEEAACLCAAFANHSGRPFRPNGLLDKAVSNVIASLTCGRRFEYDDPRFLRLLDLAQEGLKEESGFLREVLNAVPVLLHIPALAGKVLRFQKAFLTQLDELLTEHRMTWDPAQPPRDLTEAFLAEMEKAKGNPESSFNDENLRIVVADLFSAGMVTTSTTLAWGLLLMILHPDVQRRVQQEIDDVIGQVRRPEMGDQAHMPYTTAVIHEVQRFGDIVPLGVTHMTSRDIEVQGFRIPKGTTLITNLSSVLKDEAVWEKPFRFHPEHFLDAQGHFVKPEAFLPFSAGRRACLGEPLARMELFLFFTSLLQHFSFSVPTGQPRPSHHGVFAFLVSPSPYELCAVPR
Procedure: as §1

[3] = Metabolism stability test; type: in vitro ADME; conditions: human liver microsomes 0.5 mg protein/mL, 1 mmol/L NADPH, 37° C., 30 minutes; 0 minute = 100%
Procedure: Using commercially available pooled human hepatic microsomes, a test compound is reacted for a constant time, a remaining rate is calculated by comparing a reacted sample and an unreacted sample, thereby, a degree of metabolism in liver is assessed.
A reaction is performed (oxidative reaction) at 37° C. for 0 minute or 30 minutes in the presence of 1 mmol/L NADPH in 0.2 mL of a buffer (50 mmol/L Tris-HCl pH 7.4, 150 mmol/L potassium chloride, 10 mmol/L magnesium chloride) containing 0.5 mg protein/mL of human liver microsomes. After the reaction, 50 μL of the reaction solution is added to 100 μL of a methanol/acetonitrile=1/1 (v/v), mixed and centrifuged at 3000 rpm for 15 minutes. The test compound in the supernatant is quantified by LC/MS/MS, and a remaining amount of the test compound after the reaction is calculated, letting a compound amount at 0 minute reaction time to be 100%.

CYP3A4 [4] = target: T4, CYP3A4; assay: CYP3A4 fluorescent MBI test; type: in vitro ADME; set-up: host or cells: Escherichia coli; conditions: CYP3A4 expressed in Escherichia coli, substrate 7-BFC, pre-reaction 0 or 30 minutes
Procedure: The CYP3A4 fluorescent MBI test is a test of investigating enhancement of CYP3A4 inhibition of a compound by a metabolism reaction, and the test was performed using, as CYP3A4 enzyme expressed in Escherichia coli and employing, as an index, a reaction in which 7-benzyloxytrifluoromethylchmarin (7-BFC) is debenzylated by the CYP3A4 enzyme to produce a metabolite, 7-hydroxytrifluoromethylchmarin (HFC) emitting fluorescent light.
The reaction conditions were as follows: substrate, 5.6 μmol/L 7-BFC; pre-reaction time, 0 or 30 minutes; reaction time, 15 minutes; reaction temperature, 25° C. […]
An enzyme in a K-Pi buffer (pH 7.4) and a test drug solution as a pre-reaction solution were added to a 96-well plate at the composition of the pre-reaction, a part of it was transferred to another 96-well plate so that it was 1/10 diluted by a substrate in a K-Pi buffer, NADPH as a co-factor was added to initiate a reaction as an index (without preincubation) and, after a predetermined time of a reaction, acetonitrile/0.5 mol/L Tris(trishydroxyaminomethane)=4/1 was added to stop the reaction. […] For the plate on which each index reaction had been performed, a fluorescent value of 7-HFC which is a metabolite was measured with a fluorescent plate reader. […]

Row | SMILES | IC50 [1] [µM] | IC50 (Recombinant human BACE1) [µM] | also measured
1 | C=C1SC(N)=NC2(c3cc(NC(=O)c4ccc(C#N)cn4)ccc3F)COCC12 (racemic) [Compound I-3] | ≤ 1 | 0.029 | 
2 | N#Cc1ccc(C(=O)Nc2ccc(F)c(C34CCCC3COC(N)=N4)c2)nc1 (racemic) [Compound I-38] | ≤ 1 | ≤ 1 | 
3 | NC1=NC2(c3cc(-c4cccnc4F)ccc3F)CCCC2CO1 (racemic) [Compound I-40] | ≤ 1 |  | 
4 | COc1cncc(-c2ccc(F)c(C34CCCC3COC(N)=N4)c2)c1 (racemic) [Compound I-41] | ≤ 1 |  | 
5 | NC1=NC2(c3cc(-c4cccnc4F)ccc3F)COCC2CO1 (racemic) [Compound I-42] | ≤ 1 |  | remaining amount of the test compound after the reaction [3]: 94.7%
6 | COc1cncc(-c2ccc(F)c(C34COCC3COC(N)=N4)c2)c1 (racemic) [Compound I-44] | ≤ 1 |  | CYP3A4 MBI: difference of IC50 value with and without preincubation (CYP3A4 [4]): (−) (When the difference was 3 μM or less, the result was defined as (−))
7 | NC1=NC2(c3cc(-c4cncc(Cl)c4)ccc3F)COCC2CO1 (racemic) [Compound I-45] | ≤ 1 |  | 
8 | NC1=NC2(c3cc(NC(=O)c4ccc(OC(F)F)cn4)ccc3F)CCCC2CO1 (centres unmarked) [Compound I-46] | ≤ 1 |  | 

Further lines, with some results ahead:

Row | IC50 [1] [µM] | IC50 (Recombinant human BACE1) [µM] | SMILES | also measured
9 | ≤ 1 | ≤ 1 | N#Cc1ccc(C(=O)Nc2ccc(F)c(C34COCC3COC(N)=N4)c2)nc1 (racemic) [Compound I-33] | IC50 (CYP2C19): > 20 µM; IC50 (CYP1A2): > 20 µM; IC50 (CYP3A4 [2]): > 20 µM; IC50 (CYP2C9): > 20 µM; IC50 (CYP2D6): > 20 µM
10 | ≤ 1 |  | Cc1cnc(C(=O)Nc2ccc(F)c(C34COCC3COC(N)=N4)c2)cn1 (racemic) [Compound I-34] | 
11 | ≤ 1 | ≤ 1 | COc1cnc(C(=O)Nc2ccc(F)c(C34COCC3COC(N)=N4)c2)cn1 (racemic) [Compound I-35] | 
12 | ≤ 1 | ≤ 1 | NC1=NC2(c3cc(NC(=O)c4ccc(Cl)cn4)ccc3F)COCC2CO1 (racemic) [Compound I-36] | 
13 | 0.001 |  | CC#CCOc1cnc(C(=O)Nc2ccc(F)c(C34COCC3COC(N)=N4)c2)cn1 (racemic) [Compound I-37] | 
14 | ≤ 1 |  | CNC(=O)c1ccc(-c2ccc(F)c(C34COCC3COC(N)=N4)c2)cn1 (racemic) [Compound I-43] | 
